In patent publication US20240252716A1, “SELF-ASSEMBLING NANOFIBROUS ULTRASHORT PEPTIDE HYDROGELS FOR VASCULAR TISSUE ENGINEERING” (KING ABDULLAH UNIVERSITY OF SCIENCE AND TECHNOLOGY, priority 2021, published 2024):
[ ]: non-standard residue; d: D form. Cha = N[C@@H](CC1CCCCC1)C(=O)O

How the values were obtained:
[1] = system: HUVEC cells; assay: LIVE/DEAD staining viability of HUVEC cells cultured in peptide hydrogels; assay type: cell-based, Human; settings: cultured within hydrogel; 24 h, 4 days and 7 days; versus Matrigel
Protocol: Viability of HUVEC cells were evaluated by using LIVE/DEAD® staining at different time points in order to assess the compatibility of peptide scaffolds with cells. In one embodiment, the viability of HUVEC cells was determined after 24 h, 4 days and 7 days of culturing within peptide scaffolds.
In FIG. 3, for living cells were stained in green by calcein AM, while dead cells were stained in red by ethidium homodimer (EthD-1).
HUVEC cells were seeded and treated with peptides according to the protocol described above. After 24 h of incubation, the media was removed and replaced with DPBS solution containing approximately […] calcein AM and […] ethidium homodimer-1 (LIVE/DEAD® Viability/Cytotoxicity Kit, Life Technologies®) and incubated for 30 min in dark. Before imaging, the staining solution was removed and fresh DPBS was added. Stained cells were imaged with ZEISS® fluorescent microscope.
(§1) HUVEC cells were encapsulated in peptide hydrogels in 96 well tissue culture plates. Peptide solution was added to the plate at 40 μL per well. HUVEC cells suspended in 2×PBS were added to each well at 40,000 cells/well and gently mixed. The final concentration of the peptide hydrogel was 1× after the addition of 2×PBS containing cells. […] At pre-determined time points, the 3D cell viability assay, live/dead assay and florescence staining were performed.

[2] = system: HUVECs; assay: Cell attachment of HUVECs on coverslips coated with hydrogels or Matrigel; assay type: cell-based, Human; settings: after 4 hours of culture
Protocol: Cell attachment was evaluated by seeding HUVECs on top of coverslips coated with Matrigel® (control) and different hydrogels. After incubation for 4 hours, efficient cell extension and adhesion in both control and hydrogels can be clearly seen, and also tube-like structure can be observed, as shown in FIG. 4. Furthermore, the number of cells attached was calculated for different scaffold used.

[3] = system: HUVEC cells; assay: 3D cell proliferation assay (CellTiter-Glo, ATP production); assay type: cell-based, Human
Protocol: In one embodiment, HUVEC cells have higher proliferation cultured in peptides than in Matrigel®. Proliferation of cells cultured in both hydrogels and Matrigel® was evaluated by measuring the production of ATP after culturing for different period of time. The differences in ATP produced when cultured in different scaffolds was calculated.
HUVEC cells were encapsulated in peptide hydrogels in 96 well tissue culture plates. Peptide solution was added to the plate at 40 μL per well. HUVEC cells suspended in 2×PBS were added to each well at 40,000 cells/well and gently mixed. The final concentration of the peptide hydrogel was 1× after the addition of 2×PBS containing cells. Gelation occurred within 3-5 minutes and subsequently, the culture medium was added to the wells. At pre-determined time points, the 3D cell viability assay, live/dead assay and florescence staining were performed.
The CellTiter-Glo® luminescent 3D cell viability assay is a method to determine the number of viable cells in 3D hydrogels based on quantification of the ATP present, which signals the presence of metabolically active cells. After each time point, an equal amount of CellTiter-Glo® luminescent reagent was added to the same amount of media in each well. The contents were mixed for 5 minutes to digest the hydrogels and then incubated for 10 minutes. After incubation, the luminescence was recorded using a plate reader (PHERAstar® FS, Germany).

[4] = system: HUVECs; assay: Cytoskeletal (actin) staining with rhodamine-phalloidin; assay type: cell-based, Human; settings: 24 h of culture
Protocol: In one embodiment, HUVECs grown in peptide scaffolds maintain their normal morphology and functionality. […] In the present disclosure, the cytoskeleton organization of HUVECs grown in the nanofibers scaffolds was visualized by staining the actin of cells with rhodamine-phalloidin. Cell morphology and the organization of actin structures of HUVECs grown in different scaffolds were compared and shown in FIG. 7.
(§2) Immunostaining was performed after 24 h of culture. In brief, the cells were fixed with 4% paraformaldehyde solution for 30 minutes and incubated in a cold cytoskeleton buffer (3 mM MgCl2, 300 mM sucrose and 0.5% Triton X-100 in PBS solution) for 10 minutes to permeabilize the cell membranes. The permeabilised cells were incubated in blocking buffer solution (5% FBS, 0.1% Tween-20, and 0.02% sodium azide in PBS) for 30 minutes at 37° C., followed by incubation with rhodamine-phalloidin (1:300) for 1 hour at 37° C. In case of endothelial cell markers, the sample incubated with Mouse anti-Endothelial Cell CD146 ( 1/500), Rabbit anti-VWF ( 1/5000) or Mouse anti-CD31 ( 1/50) for 1 hour and followed by secondary antibody. Furthermore, the cells were incubated in DAPI for 5 minutes at room temperature to counterstain the nucleus. Finally, the cells were observed and imaged using a laser scanning confocal microscope (Zeiss® LSM 710 Inverted Confocal Microscope, Germany).

[5] = system: HUVECs; assay: Endothelial cell marker expression (immunostaining); assay type: cell-based, Human; settings: similar to that in Matrigel
Protocol: The functionality of HUVECs in different scaffolds was determined by the expression of universal endothelial cell markers, including CD34, CD146 and Von-Willebrand factor (vWF).
as §2

[6] = system: HUVECs; assay: In vitro angiogenesis study (tube-like structure formation); assay type: cell-based, Human; settings: for capillary-like structure formation by HUVECs: 2-6 hours of culture, no growth factors added to peptide scaffolds; for length of tube-like structure versus Matrigel: ImageJ, peptides without growth factor; for number of junctions of tube-like structure versus Matrigel: peptide hydrogels without growth factor, Matrigel with growth factors
Protocol: In one embodiment, HUVEC cells form tube-like structures when cultured in peptide hydrogels. In determining the effects of peptide scaffolds in facilitating the formation of the capillary-like structure formed by HUVEC cells, there was no addition of growth factors, after cells were plated on the surfaces of IIFK (SEQ ID NO. 1) and IIZK (SEQ ID NO. 2) scaffolds and Matrigel® (control). […] However, Matrigel® scaffold contains several growth factors that stimulate capillary-like structure formation rapidly. […] Tube length and diameter were evaluated using ImageJ software. […] In our study, no growth factors were added to the peptide scaffold.
Peptide hydrogel or Matrigel® were placed in 24 well plate, and human umbilical vein endothelial cells (HUVECs) 40,000 cells/well were added on top of peptide gel or Matrigel®. The amount of solutions in each well is about 200 μl. […] Cells were then investigated using inverted microscope, and images were analyzed by Image J using Angiogenesis Analyzer.

[7] = Peptide hydrogel preparation / gelation; assay type: physicochemical; settings: water, then PBS to 1x final
Source text: The solution-gel transition of both peptides (IIFK (SEQ ID NO. 1) and IIZK (SEQ ID NO. 2)) were induced by the addition of 1×PBS. Scanning electron microscopy (SEM) and transmission electron microscopy (TEM) examinations also confirmed the self-assembling nanofiber formations, as shown in FIGS. 1 and 2. The scale bars are 1 μm in FIGS. 1 and 200 nm in FIG. 2.
The tetramer self-assembling peptides Ac-IIZK (SEQ ID NO. 2)-NH2 (Ac-Ile-Val-Cha-Lys-NH2) and Ac-IIFK (SEQ ID NO. 1)-NH2 (Ac-Ile-Val-Phe-Lys-N H2) were manually synthesized by using solid phase peptide synthesis and purified to above 95% via HPLC. Amino acid and peptide content analysis were performed. Lyophilized peptide was dissolved in milliQ® water and vortexed to get a homogenous solution. Subsequently, 10×phosphate buffered saline at the final concentration of 1× was added to the peptide solution and vortexed shortly. Gelation occurred within few seconds in IIZK (SEQ ID NO. 2) at I mg/mL and IIFK (SEQ ID NO. 1) at 2 mg/mL peptide concentration.
as §1, with “mixed.” for “mixed. The final concentration of the peptide hydrogel was 1× after the addition of 2×PBS containing cells.”

| peptide concentration at which gelation occurred within few seconds [7] | Substance | viability of HUVEC cells (LIVE/DEAD staining) compared to Matrigel [1] | number of attached cells versus Matrigel [2] | ATP production by HUVEC cells versus Matrigel ([3]; after 24 h of culture) | ATP production by HUVEC cells versus Matrigel ([3]; after 7 day of culture) | cell morphology and actin organization [4] | expression of endothelial cell markers CD34, CD146 and vWF [5] | capillary-like structure formation by HUVECs [6] | length of tube-like structure versus Matrigel [6] | number of junctions of tube-like structure versus Matrigel [6] |
| --- | --- | --- | --- | --- | --- | --- | --- | --- | --- | --- |
|  | Ac-IV[Cha]K-NH2 [IIZK] | higher viability | no significant difference | no significant difference | significantly higher | fibroblastic morphology | well expressed | formed capillary-like structure networks | no significant difference | comparable |
| 2 mg/mL | Ac-Ile-Val-Phe-Lys-N H2 [IIFK] | higher viability | no significant difference | no significant difference | significantly higher | fibroblastic morphology | well expressed | formed capillary-like structure networks | no significant difference | comparable |
